Measurements taken from ChEMBL document CHEMBL2375211, “2-methoxyjuglone induces apoptosis in HepG2 human hepatocellular carcinoma cells and exhibits in vivo antitumor activity in a H22 mouse hepatocellular carcinoma model” (J Nat Prod, 2013).
Values after ≈ are worked out from the molar mass of the structure shown. Active and inactive are the calls of the source. The rule behind the calls is not given here.

Tests used:
HepG2 [1] = experiment: Cell cycle arrest in human HepG2 cells assessed as accumulation at sub-G1 phase at 1.6 ug/mL after 48 hrs by propidium iodide staining-based flow cytometric analysis (reference value: 3%); format: functional
HepG2 [2] = experiment: Cell cycle arrest in human HepG2 cells assessed as accumulation at G2/M phase at 8 ug/mL after 24 hrs by propidium iodide staining-based flow cytometric analysis (reference value: 9%); format: functional
HepG2 [3] = experiment: Cell cycle arrest in human HepG2 cells assessed as accumulation at S phase at 8 ug/mL after 24 hrs by propidium iodide staining-based flow cytometric analysis (reference value: 46%); format: functional
HepG2 [4] = experiment: Cell cycle arrest in human HepG2 cells assessed as accumulation at G1 phase at 8 ug/mL after 24 hrs by propidium iodide staining-based flow cytometric analysis (reference value: 45%); format: functional
HepG2 [5] = experiment: Cell cycle arrest in human HepG2 cells assessed as accumulation at sub-G1 phase at 8 ug/mL after 24 hrs by propidium iodide staining-based flow cytometric analysis (reference value: 4%); format: functional
HepG2 [6] = experiment: Cell cycle arrest in human HepG2 cells assessed as accumulation at G2/M phase at 6.4 ug/mL after 24 hrs by propidium iodide staining-based flow cytometric analysis (reference value: 9%); format: functional
HepG2 [7] = experiment: Cell cycle arrest in human HepG2 cells assessed as accumulation at S phase at 6.4 ug/mL after 24 hrs by propidium iodide staining-based flow cytometric analysis (reference value: 46%); format: functional
HepG2 [8] = experiment: Cell cycle arrest in human HepG2 cells assessed as accumulation at G1 phase at 6.4 ug/mL after 24 hrs by propidium iodide staining-based flow cytometric analysis (reference value: 45%); format: functional
HepG2 [9] = experiment: Cell cycle arrest in human HepG2 cells assessed as accumulation at sub-G1 phase at 6.4 ug/mL after 24 hrs by propidium iodide staining-based flow cytometric analysis (reference value: 4%); format: functional
HepG2 [10] = experiment: Cell cycle arrest in human HepG2 cells assessed as accumulation at G2/M phase at 4.8 ug/mL after 24 hrs by propidium iodide staining-based flow cytometric analysis (reference value: 9%); format: functional
HepG2 [11] = experiment: Cell cycle arrest in human HepG2 cells assessed as accumulation at S phase at 4.8 ug/mL after 24 hrs by propidium iodide staining-based flow cytometric analysis (reference value: 46%); format: functional
HepG2 [12] = experiment: Cell cycle arrest in human HepG2 cells assessed as accumulation at G1 phase at 4.8 ug/mL after 24 hrs by propidium iodide staining-based flow cytometric analysis (reference value: 45%); format: functional
HepG2 [13] = experiment: Cell cycle arrest in human HepG2 cells assessed as accumulation at sub-G1 phase at 4.8 ug/mL after 24 hrs by propidium iodide staining-based flow cytometric analysis (reference value: 4%); format: functional
HepG2 [14] = experiment: Cell cycle arrest in human HepG2 cells assessed as accumulation at G2/M phase at 3.2 ug/mL after 24 hrs by propidium iodide staining-based flow cytometric analysis (reference value: 9%); format: functional
HepG2 [15] = experiment: Cell cycle arrest in human HepG2 cells assessed as accumulation at S phase at 3.2 ug/mL after 24 hrs by propidium iodide staining-based flow cytometric analysis (reference value: 46%); format: functional
HepG2 [16] = experiment: Cell cycle arrest in human HepG2 cells assessed as accumulation at G1 phase at 3.2 ug/mL after 24 hrs by propidium iodide staining-based flow cytometric analysis (reference value: 45%); format: functional
HepG2 [17] = experiment: Cell cycle arrest in human HepG2 cells assessed as accumulation at sub-G1 phase at 3.2 ug/mL after 24 hrs by propidium iodide staining-based flow cytometric analysis (reference value: 4%); format: functional
HepG2 [18] = experiment: Cell cycle arrest in human HepG2 cells assessed as accumulation at G2/M phase at 1.6 ug/mL after 24 hrs by propidium iodide staining-based flow cytometric analysis (reference value: 9%); format: functional
HepG2 [19] = experiment: Cell cycle arrest in human HepG2 cells assessed as accumulation at S phase at 1.6 ug/mL after 24 hrs by propidium iodide staining-based flow cytometric analysis (reference value: 46%); format: functional
HepG2 [20] = experiment: Cell cycle arrest in human HepG2 cells assessed as accumulation at G1 phase at 1.6 ug/mL after 24 hrs by propidium iodide staining-based flow cytometric analysis (reference value: 45%); format: functional
HepG2 [21] = experiment: Cell cycle arrest in human HepG2 cells assessed as accumulation at sub-G1 phase at 1.6 ug/mL after 24 hrs by propidium iodide staining-based flow cytometric analysis (reference value: 4%); format: functional
HepG2 [22] = experiment: Induction of apoptosis in human HepG2 cells assessed as apoptotic body formation at 8 ug/mL after 24 hrs by acridine orange/ethidium bromide staining-based fluorescence microscopic analysis; format: functional, cell-based
HepG2 [23] = experiment: Induction of apoptosis in human HepG2 cells assessed as nuclear condensation at 4.8 ug/mL after 24 hrs by acridine orange/ethidium bromide staining-based fluorescence microscopic analysis; format: functional, cell-based
HepG2 [24] = experiment: Induction of apoptosis in human HepG2 cells assessed as membrane damage at 4.8 to 8 ug/mL after 24 hrs by acridine orange/ethidium bromide staining-based fluorescence microscopic analysis; format: functional, cell-based
HepG2 [25] = experiment: Induction of apoptosis in human HepG2 cells assessed as appearance of membrane blebbing at 4.8 to 8 ug/mL after 24 hrs by inverted microscopic analysis relative to control; format: functional, cell-based
HepG2 [26] = experiment: Induction of apoptosis in human HepG2 cells assessed as appearance of cell shrinkage at 4.8 to 8 ug/mL after 24 hrs by inverted microscopic analysis relative to control; format: functional, cell-based
HepG2 [27] = experiment: Cytotoxicity against human HepG2 cells assessed as cell viability after 72 hrs by MTT assay; format: functional, cell-based; settings: HepG2, 72 h
HepG2 [28] = experiment: Cytotoxicity against human HepG2 cells assessed as cell viability after 48 hrs by MTT assay; format: functional, cell-based; settings: HepG2, 48 h
HepG2 [29] = experiment: Cytotoxicity against human HepG2 cells assessed as cell viability after 24 hrs by MTT assay; format: functional, cell-based; settings: HepG2, 24 h
HepG2 [30] = experiment: Cytotoxicity against human HepG2 cells assessed as decrease in cell viability at 1.6 to 8 ug/mL by MTT assay; format: functional, cell-based; settings: TDE = time-dependent effect
HepG2 [31] = experiment: Cytotoxicity against human HepG2 cells assessed as decrease in cell viability after 24 to 72 hrs by MTT assay; format: functional, cell-based

COC1=CC(=O)c2c(O)cccc2C1=O
Activity (HepG2 [1]): 6%
Activity (HepG2 [2]): 0%
Activity (HepG2 [3]): 59%
Activity (HepG2 [4]): 41%
Activity (HepG2 [5]): 7%
Activity (HepG2 [6]): 2%
Activity (HepG2 [7]): 61%
Activity (HepG2 [8]): 37%
Activity (HepG2 [9]): 6%
Activity (HepG2 [10]): 0%
Activity (HepG2 [11]): 62%
Activity (HepG2 [12]): 38%
Activity (HepG2 [13]): 7%
Activity (HepG2 [14]): 2%
Activity (HepG2 [15]): 64%
Activity (HepG2 [16]): 34%
Activity (HepG2 [17]): 2%
Activity (HepG2 [18]): 1%
Activity (HepG2 [19]): 62%
Activity (HepG2 [20]): 37%
Activity (HepG2 [21]): 5%
Activity (HepG2 [22]): Active
Activity (HepG2 [23]): Active
Activity (HepG2 [24]): Active
Activity (HepG2 [25]): Active
Activity (HepG2 [26]): Active
IC50 (HepG2 [27]): 2.7 µg/mL (≈ 13.2 µM)
IC50 (HepG2 [28]): 3.7 µg/mL (≈ 18.1 µM)
IC50 (HepG2 [29]): 3.8 µg/mL (≈ 18.6 µM)
Activity (HepG2 [30]): tde
Activity (HepG2 [31]): Dose-dependent effect
